Active and inactive are the calls of the source. The rule behind the calls is not given here.
Key:
[1] = target: D(3) dopamine receptor (Homo sapiens) (UniProt P35462); conditions: Compound concentration 10.0 uM
[2] = target: Cyclin-dependent kinase 2/cyclin A (Homo sapiens) (UniProt P24941+P20248+P78396); assay: CDK2/cyclin A SelectScreen Kinase panel (LifeTechnologies); type: protein-complex assay; conditions: Compound concentration 1.0 uM
[3] = target: 5-hydroxytryptamine receptor 2C (Homo sapiens) (UniProt P28335); conditions: Compound concentration 10.0 uM
[4] = target: Aurora kinase B (Homo sapiens) (UniProt Q96GD4); assay: AURKB (Aurora B) SelectScreen Kinase panel (LifeTechnologies); conditions: Compound concentration 1.0 uM
[5] = target: Serine/threonine-protein kinase mTOR (Homo sapiens) (UniProt P42345); assay: FRAP1 (mTOR) SelectScreen Kinase panel (LifeTechnologies); conditions: Compound concentration 1.0 uM
[6] = target: Mitogen-activated protein kinase 3 (Homo sapiens) (UniProt P27361); assay: MAPK3 (ERK1) SelectScreen Kinase panel (LifeTechnologies); conditions: Compound concentration 1.0 uM
[7] = target: Rhodopsin kinase GRK7 (Homo sapiens) (UniProt Q8WTQ7); assay: GRK7 SelectScreen Kinase panel (LifeTechnologies); conditions: Compound concentration 1.0 uM
[8] = target: Ribosomal protein S6 kinase alpha-1 (Homo sapiens) (UniProt Q15418); assay: RPS6KA1 (RSK1) SelectScreen Kinase panel (LifeTechnologies); conditions: Compound concentration 1.0 uM
[9] = target: ALK tyrosine kinase receptor (Homo sapiens) (UniProt Q9UM73); assay: ALK SelectScreen Kinase panel (LifeTechnologies); conditions: Compound concentration 1.0 uM
[10] = target: Cyclin-dependent kinase 1/cyclin B (Homo sapiens) (UniProt P06493+P14635+Q8WWL7+O95067); assay: CDK1/cyclin B SelectScreen Kinase panel (LifeTechnologies); type: protein-complex assay; conditions: Compound concentration 1.0 uM
[11] = target: Hepatocyte growth factor receptor (Homo sapiens) (UniProt P08581); assay: MET (cMet) SelectScreen Kinase panel (LifeTechnologies); conditions: Compound concentration 1.0 uM
[12] = target: 5-hydroxytryptamine receptor 6 (Homo sapiens) (UniProt P50406); conditions: Compound concentration 10.0 uM
[13] = target: Alpha-1B adrenergic receptor (Homo sapiens) (UniProt P35368); conditions: Compound concentration 10.0 uM
[14] = target: Serine/threonine-protein kinase Sgk3 (Homo sapiens) (UniProt Q96BR1); assay: SGKL (SGK3) SelectScreen Kinase panel (LifeTechnologies); conditions: Compound concentration 1.0 uM
[15] = target: 3-phosphoinositide-dependent protein kinase 1 (Homo sapiens) (UniProt O15530); assay: PDK1 Direct SelectScreen Kinase panel (LifeTechnologies); conditions: Compound concentration 1.0 uM
[16] = target: Glycogen synthase kinase-3 beta (Homo sapiens) (UniProt P49841); assay: GSK3B (GSK3 beta) SelectScreen Kinase panel (LifeTechnologies); conditions: Compound concentration 1.0 uM
[17] = target: 5-hydroxytryptamine receptor 1D (Homo sapiens) (UniProt P28221); conditions: Compound concentration 10.0 uM
[18] = target: cGMP-dependent protein kinase 1 (Homo sapiens) (UniProt Q13976); assay: PRKG1 SelectScreen Kinase panel (LifeTechnologies); conditions: Compound concentration 1.0 uM
[19] = target: G protein-coupled receptor kinase 4 (Homo sapiens) (UniProt P32298); assay: GRK4 SelectScreen Kinase panel (LifeTechnologies); conditions: Compound concentration 1.0 uM
[20] = target: Serine/threonine-protein kinase BRSK1 (Homo sapiens) (UniProt Q8TDC3); assay: BRSK1 (SAD1) SelectScreen Kinase panel (LifeTechnologies); conditions: Compound concentration 1.0 uM
[21] = target: Serine/threonine-protein kinase pim-1 (Homo sapiens) (UniProt P11309); assay: PIM1 SelectScreen Kinase panel (LifeTechnologies); conditions: Compound concentration 1.0 uM
[22] = target: Ribosomal protein S6 kinase alpha-4 (Homo sapiens) (UniProt O75676); assay: RPS6KA4 (MSK2) SelectScreen Kinase panel (LifeTechnologies); conditions: Compound concentration 1.0 uM
[23] = target: Alpha-1D adrenergic receptor (Homo sapiens) (UniProt P25100); conditions: Compound concentration 10.0 uM
[24] = target: Alpha-2B adrenergic receptor (Homo sapiens) (UniProt P18089); conditions: Compound concentration 10.0 uM
[25] = GPCRScan assay: inhibition of GABA/PBR; design: species or system Rattus norvegicus; radioligand conc. used [nm] 0.3 – 2.0, parental cells brain tissue
[26] = target: G protein-coupled receptor kinase 5 (Homo sapiens) (UniProt P34947); assay: GRK5 SelectScreen Kinase panel (LifeTechnologies); conditions: Compound concentration 1.0 uM
Chain of G protein-coupled receptor kinase 5 (Homo sapiens) (P34947 whole entry, looked up): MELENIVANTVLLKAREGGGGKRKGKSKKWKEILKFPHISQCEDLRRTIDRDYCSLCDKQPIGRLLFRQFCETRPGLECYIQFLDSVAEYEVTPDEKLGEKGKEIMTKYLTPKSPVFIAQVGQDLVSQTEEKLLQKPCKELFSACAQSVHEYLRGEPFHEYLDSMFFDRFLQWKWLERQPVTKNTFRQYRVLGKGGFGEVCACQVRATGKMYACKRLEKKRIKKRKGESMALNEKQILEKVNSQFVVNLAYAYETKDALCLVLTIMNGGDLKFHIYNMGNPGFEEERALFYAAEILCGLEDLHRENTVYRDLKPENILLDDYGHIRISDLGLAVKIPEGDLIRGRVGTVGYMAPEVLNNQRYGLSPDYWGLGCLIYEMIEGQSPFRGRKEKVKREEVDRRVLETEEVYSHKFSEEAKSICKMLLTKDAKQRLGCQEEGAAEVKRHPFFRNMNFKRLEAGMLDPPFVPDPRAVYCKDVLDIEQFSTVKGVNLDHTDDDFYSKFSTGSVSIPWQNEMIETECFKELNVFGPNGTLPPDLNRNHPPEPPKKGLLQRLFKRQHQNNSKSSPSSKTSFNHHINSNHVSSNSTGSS

[27] = target: Serine/threonine-protein kinase Chk2 (Homo sapiens) (UniProt O96017); assay: CHEK2 (CHK2) SelectScreen Kinase panel (LifeTechnologies); conditions: Compound concentration 1.0 uM
[28] = target: Serine/threonine-protein kinase DCLK2 (Homo sapiens) (UniProt Q8N568); assay: DCAMKL2 (DCK2) SelectScreen Kinase panel (LifeTechnologies); conditions: Compound concentration 1.0 uM
Chain of Serine/threonine-protein kinase DCLK2 (Homo sapiens) (Q8N568 whole entry): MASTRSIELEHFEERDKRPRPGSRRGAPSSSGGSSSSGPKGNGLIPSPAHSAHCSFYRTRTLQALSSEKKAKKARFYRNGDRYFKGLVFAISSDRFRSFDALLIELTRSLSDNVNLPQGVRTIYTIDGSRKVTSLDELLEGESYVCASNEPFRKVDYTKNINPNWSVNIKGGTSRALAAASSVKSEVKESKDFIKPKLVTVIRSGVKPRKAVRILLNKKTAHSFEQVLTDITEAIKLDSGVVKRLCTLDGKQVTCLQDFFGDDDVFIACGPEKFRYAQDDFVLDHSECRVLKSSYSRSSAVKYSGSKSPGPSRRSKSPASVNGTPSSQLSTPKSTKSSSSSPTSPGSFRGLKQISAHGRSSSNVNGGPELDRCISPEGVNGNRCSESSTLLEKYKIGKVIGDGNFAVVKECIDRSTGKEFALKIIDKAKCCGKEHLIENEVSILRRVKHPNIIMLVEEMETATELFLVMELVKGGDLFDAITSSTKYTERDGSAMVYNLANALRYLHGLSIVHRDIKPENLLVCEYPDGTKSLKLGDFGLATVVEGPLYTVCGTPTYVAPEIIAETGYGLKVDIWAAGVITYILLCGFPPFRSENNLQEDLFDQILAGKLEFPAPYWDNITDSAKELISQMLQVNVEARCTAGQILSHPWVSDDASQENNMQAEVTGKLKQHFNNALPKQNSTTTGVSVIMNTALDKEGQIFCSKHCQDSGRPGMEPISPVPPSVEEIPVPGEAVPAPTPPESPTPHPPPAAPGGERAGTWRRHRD

[29] = target: Mitogen-activated protein kinase kinase kinase kinase 5 (Homo sapiens) (UniProt Q9Y4K4); assay: MAP4K5 (KHS1) SelectScreen Kinase panel (LifeTechnologies); conditions: Compound concentration 1.0 uM
[30] = target: Protein kinase C gamma type (Homo sapiens) (UniProt P05129); assay: PRKCG (PKC gamma) SelectScreen Kinase panel (LifeTechnologies); conditions: Compound concentration 1.0 uM
[31] = target: Serine/threonine-protein kinase D3 (Homo sapiens) (UniProt O94806); assay: PRKCN (PKD3) SelectScreen Kinase panel (LifeTechnologies); conditions: Compound concentration 1.0 uM
Chain of Serine/threonine-protein kinase D3 (Homo sapiens) (O94806 whole entry): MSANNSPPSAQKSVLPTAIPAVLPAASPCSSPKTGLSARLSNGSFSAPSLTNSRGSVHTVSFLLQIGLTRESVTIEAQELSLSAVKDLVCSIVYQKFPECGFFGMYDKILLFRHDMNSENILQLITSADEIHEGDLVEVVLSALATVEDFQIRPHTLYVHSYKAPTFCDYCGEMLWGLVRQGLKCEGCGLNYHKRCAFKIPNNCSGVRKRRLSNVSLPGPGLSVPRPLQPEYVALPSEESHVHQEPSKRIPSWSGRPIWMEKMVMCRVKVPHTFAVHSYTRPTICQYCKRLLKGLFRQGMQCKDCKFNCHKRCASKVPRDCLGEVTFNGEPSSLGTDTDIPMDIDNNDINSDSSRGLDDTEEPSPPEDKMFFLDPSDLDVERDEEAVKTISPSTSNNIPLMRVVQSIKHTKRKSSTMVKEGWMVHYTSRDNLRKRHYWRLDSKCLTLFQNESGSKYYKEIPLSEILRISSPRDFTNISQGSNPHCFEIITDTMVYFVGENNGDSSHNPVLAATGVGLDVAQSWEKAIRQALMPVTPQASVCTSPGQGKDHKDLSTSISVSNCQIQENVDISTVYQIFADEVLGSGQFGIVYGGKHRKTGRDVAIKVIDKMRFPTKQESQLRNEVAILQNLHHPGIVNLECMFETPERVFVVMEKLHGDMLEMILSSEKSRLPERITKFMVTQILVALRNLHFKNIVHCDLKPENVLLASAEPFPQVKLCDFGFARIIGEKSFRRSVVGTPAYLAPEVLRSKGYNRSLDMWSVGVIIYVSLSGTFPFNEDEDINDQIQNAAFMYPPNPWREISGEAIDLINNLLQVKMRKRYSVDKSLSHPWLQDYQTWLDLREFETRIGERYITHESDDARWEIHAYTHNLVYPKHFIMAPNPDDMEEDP

[32] = target: Serine/threonine-protein kinase MARK2 (Homo sapiens) (UniProt Q7KZI7); assay: MARK2 SelectScreen Kinase panel (LifeTechnologies); conditions: Compound concentration 1.0 uM
[33] = target: Tyrosine-protein kinase ABL1 (Homo sapiens) (UniProt P00519); assay: ABL1 SelectScreen Kinase panel (LifeTechnologies); conditions: Compound concentration 1.0 uM
[34] = target: MAP kinase-activated protein kinase 2 (Homo sapiens) (UniProt P49137); assay: MAPKAPK2 SelectScreen Kinase panel (LifeTechnologies); conditions: Compound concentration 1.0 uM
[35] = target: Muscarinic acetylcholine receptor M1 (Homo sapiens) (UniProt P11229); conditions: Compound concentration 10.0 uM
[36] = target: Serine/threonine-protein kinase MRCK beta (Homo sapiens) (UniProt Q9Y5S2); assay: CDC42 BPB (MRCKB) SelectScreen Kinase panel (LifeTechnologies); conditions: Compound concentration 1.0 uM
Chain of Serine/threonine-protein kinase MRCK beta (Homo sapiens) (Q9Y5S2 whole entry): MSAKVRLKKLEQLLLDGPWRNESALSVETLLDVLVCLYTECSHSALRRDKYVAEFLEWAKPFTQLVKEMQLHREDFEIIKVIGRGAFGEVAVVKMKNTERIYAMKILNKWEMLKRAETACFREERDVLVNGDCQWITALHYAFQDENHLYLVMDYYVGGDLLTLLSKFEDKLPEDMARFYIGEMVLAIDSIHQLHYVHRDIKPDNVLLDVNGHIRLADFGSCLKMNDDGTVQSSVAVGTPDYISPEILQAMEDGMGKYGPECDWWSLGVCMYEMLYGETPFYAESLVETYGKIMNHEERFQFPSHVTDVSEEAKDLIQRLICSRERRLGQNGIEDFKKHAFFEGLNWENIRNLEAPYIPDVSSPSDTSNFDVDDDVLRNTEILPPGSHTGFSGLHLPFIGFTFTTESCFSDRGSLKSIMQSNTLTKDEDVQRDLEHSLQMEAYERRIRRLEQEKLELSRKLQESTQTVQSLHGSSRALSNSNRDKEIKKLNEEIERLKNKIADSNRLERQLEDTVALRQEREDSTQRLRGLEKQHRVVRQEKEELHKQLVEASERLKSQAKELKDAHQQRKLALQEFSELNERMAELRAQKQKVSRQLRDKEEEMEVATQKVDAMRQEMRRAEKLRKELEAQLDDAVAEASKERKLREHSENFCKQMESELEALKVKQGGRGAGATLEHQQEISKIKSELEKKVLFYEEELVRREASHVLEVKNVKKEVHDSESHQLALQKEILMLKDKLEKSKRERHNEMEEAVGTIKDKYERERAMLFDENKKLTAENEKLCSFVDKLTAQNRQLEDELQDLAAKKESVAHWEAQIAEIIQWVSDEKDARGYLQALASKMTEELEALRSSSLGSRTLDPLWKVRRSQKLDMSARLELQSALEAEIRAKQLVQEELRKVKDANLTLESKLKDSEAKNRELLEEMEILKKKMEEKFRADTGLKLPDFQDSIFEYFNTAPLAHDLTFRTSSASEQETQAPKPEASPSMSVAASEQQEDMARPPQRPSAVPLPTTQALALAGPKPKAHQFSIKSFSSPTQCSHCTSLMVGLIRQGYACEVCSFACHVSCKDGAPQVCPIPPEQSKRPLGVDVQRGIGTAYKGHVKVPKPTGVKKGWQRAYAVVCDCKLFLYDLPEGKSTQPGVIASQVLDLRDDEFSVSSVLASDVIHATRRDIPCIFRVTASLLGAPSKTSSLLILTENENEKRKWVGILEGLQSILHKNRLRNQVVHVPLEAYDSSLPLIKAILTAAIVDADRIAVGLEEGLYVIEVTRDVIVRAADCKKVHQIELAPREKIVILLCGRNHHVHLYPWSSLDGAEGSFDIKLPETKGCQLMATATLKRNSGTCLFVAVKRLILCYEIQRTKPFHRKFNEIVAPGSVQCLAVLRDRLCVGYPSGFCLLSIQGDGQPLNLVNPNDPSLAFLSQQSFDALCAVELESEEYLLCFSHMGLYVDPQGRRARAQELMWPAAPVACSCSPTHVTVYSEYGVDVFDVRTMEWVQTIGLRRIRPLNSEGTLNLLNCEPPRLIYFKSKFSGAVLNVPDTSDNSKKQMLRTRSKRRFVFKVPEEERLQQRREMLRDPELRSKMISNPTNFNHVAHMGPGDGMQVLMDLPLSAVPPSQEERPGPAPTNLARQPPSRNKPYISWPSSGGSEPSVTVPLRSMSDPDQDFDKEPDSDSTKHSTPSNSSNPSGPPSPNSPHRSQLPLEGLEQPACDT

[37] = target: Serine/threonine-protein kinase TBK1 (Homo sapiens) (UniProt Q9UHD2); assay: TBK1 SelectScreen Kinase panel (LifeTechnologies); conditions: Compound concentration 1.0 uM
[38] = target: Sodium-dependent serotonin transporter (Homo sapiens) (UniProt P31645); conditions: Compound concentration 10.0 uM
[39] = target: Sodium-dependent dopamine transporter (Homo sapiens, UniProt Q01959); assay: GPCRScan assay: inhibition of DAT; design: radioligand conc. used [nm] 3.6 – 16.0, parental cells stable HEK
Chain of Sodium-dependent dopamine transporter (Q01959 whole entry): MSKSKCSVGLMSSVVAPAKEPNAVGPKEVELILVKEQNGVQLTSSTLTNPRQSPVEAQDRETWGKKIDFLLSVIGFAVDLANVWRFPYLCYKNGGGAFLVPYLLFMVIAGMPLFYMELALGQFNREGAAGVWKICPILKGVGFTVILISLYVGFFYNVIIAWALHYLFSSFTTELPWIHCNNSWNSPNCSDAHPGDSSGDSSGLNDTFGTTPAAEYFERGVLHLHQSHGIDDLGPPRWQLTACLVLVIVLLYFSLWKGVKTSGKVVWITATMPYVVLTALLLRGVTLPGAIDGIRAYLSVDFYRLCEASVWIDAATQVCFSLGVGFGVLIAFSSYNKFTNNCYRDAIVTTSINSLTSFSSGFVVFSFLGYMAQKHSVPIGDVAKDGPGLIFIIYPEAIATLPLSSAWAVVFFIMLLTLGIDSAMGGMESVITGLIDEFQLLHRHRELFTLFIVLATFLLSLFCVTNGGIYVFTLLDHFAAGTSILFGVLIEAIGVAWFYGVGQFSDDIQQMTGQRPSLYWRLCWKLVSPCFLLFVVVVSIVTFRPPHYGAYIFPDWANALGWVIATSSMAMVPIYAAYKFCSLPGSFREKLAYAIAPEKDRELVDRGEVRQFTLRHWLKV

[40] = target: cAMP-dependent protein kinase catalytic subunit PRKX (Homo sapiens) (UniProt P51817); assay: PRKX SelectScreen Kinase panel (LifeTechnologies); conditions: Compound concentration 1.0 uM
Chain of cAMP-dependent protein kinase catalytic subunit PRKX (Homo sapiens) (P51817 whole entry): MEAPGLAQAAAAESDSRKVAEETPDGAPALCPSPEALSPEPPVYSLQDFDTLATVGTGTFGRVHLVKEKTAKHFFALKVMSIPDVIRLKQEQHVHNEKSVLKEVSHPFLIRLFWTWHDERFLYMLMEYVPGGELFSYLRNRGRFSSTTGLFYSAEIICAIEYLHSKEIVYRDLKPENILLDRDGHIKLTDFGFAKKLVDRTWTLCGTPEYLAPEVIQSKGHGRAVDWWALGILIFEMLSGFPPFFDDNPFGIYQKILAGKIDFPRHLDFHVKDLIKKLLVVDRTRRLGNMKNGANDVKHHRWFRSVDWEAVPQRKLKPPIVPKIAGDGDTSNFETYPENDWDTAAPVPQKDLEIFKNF

[41] = NanoBRET assay (AKT1); conditions: Homo sapiens
[42] = target: Tyrosine-protein kinase TXK (Homo sapiens) (UniProt P42681); assay: TXK SelectScreen Kinase panel (LifeTechnologies); conditions: Compound concentration 1.0 uM
[43] = target: Alpha-1B adrenergic receptor (Homo sapiens, UniProt P35368); assay: GPCRScan assay: inhibition of Alpha1B; design: radioligand conc. used [nm] 0.3 – 1.0, parental cells stable HEK
[44] = target: Muscarinic acetylcholine receptor M4 (Homo sapiens) (UniProt P08173); conditions: Compound concentration 10.0 uM

C=CC(=O)Nc1ccc2[nH]c(=O)n(C3CCN(Cc4ccc(-c5nc6cc[nH]c(=O)c6cc5-c5ccccc5)cc4)CC3)c2c1 [Borussertib] showed an inhibition [1] of 20.9%, an inhibition [2] of 1% and an inhibition [3] of -8.03%. The inhibition [4] was 7%, the inhibition [5] was -9% and the inhibition [6] was -3%. For the same compound, the inhibition [7] was -6%, the inhibition [8] was 12% and the inhibition [9] was -2%. It also gave an inhibition [10] of 3%, an inhibition [11] of -2% and an inhibition [12] of -3.73%. For the same compound, the inhibition [13] was 52.3%, the inhibition [14] was 2% and the inhibition [15] was -4%. For the same compound, the inhibition [16] was 20%, the inhibition [17] was 12.1% and the inhibition [18] was 5%. For the same compound, the inhibition [19] was 8%, the inhibition [20] was 7% and the inhibition [21] was 0%. For the same compound, the inhibition [22] was 8%, the inhibition [23] was 22.1% and the inhibition [24] was 4.03%. For the same compound, the Ki [25] was 0.0573 µM, the pKi [25] was 7.24 and the inhibition [26] was -2%. For the same compound, the inhibition [27] was 4%, the inhibition [28] was -2% and the inhibition [29] was 37%. It also gave an inhibition [30] of 17%, an inhibition [31] of 14% and an inhibition [32] of -2%. The inhibition [33] was 2%, the inhibition [34] was 30% and the inhibition [35] was -8.04%. For the same compound, the inhibition [36] was 1%, the inhibition [37] was 6% and the inhibition [38] was 2.16%. For the same compound, the Ki ([39]; read-out: Ki) was 3.66 µM, the Ki ([39]; read-out: pKi (converted)) was 3.63 µM and the inhibition [40] was 3%. For the same compound, the EC50 [41] was 0.026 µM (active), the IC50 [41] was 0.021 µM (active) and the inhibition [42] was 8%. For the same compound, the Ki [43] was 4.24 µM and the inhibition [44] was -7.81%.

Source: ChEMBL document CHEMBL4800730 (2021)
